Laboratory results from publication PMC8877008, “Synthesis and Structure–Activity Relationship Studies of Benzimidazole-4,7-dione-Based P2X3 Receptor Antagonists as Novel Anti-Nociceptive Agents” (Molecules, 2022).

Columns and labels:
hP2X2/3R = target: T1, hP2X2/3R (Homo sapiens, UniProt P56373+Q9UBL9); experiment: Calcium influx (Fluo-4) evoked by α,β-meATP in HEK293 cells stably expressing hP2X2/3R; assay type: cell-based; conditions: antagonistic activity; HEK293 cells expressing hP2X2/3R; agonist at EC70
T1 construct: expressed in transfected cells
T1 sequence (P56373 1-397): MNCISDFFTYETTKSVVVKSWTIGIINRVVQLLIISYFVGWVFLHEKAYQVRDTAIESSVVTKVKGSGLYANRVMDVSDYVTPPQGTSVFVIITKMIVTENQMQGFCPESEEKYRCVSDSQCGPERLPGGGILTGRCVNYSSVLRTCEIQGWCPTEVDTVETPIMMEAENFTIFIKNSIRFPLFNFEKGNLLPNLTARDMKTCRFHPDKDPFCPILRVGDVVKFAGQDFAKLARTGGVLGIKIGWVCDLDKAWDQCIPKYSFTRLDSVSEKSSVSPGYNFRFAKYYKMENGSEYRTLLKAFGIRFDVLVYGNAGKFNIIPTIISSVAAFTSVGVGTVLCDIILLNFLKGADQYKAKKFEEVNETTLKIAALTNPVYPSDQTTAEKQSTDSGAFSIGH
T1 sequence (Q9UBL9 1-471): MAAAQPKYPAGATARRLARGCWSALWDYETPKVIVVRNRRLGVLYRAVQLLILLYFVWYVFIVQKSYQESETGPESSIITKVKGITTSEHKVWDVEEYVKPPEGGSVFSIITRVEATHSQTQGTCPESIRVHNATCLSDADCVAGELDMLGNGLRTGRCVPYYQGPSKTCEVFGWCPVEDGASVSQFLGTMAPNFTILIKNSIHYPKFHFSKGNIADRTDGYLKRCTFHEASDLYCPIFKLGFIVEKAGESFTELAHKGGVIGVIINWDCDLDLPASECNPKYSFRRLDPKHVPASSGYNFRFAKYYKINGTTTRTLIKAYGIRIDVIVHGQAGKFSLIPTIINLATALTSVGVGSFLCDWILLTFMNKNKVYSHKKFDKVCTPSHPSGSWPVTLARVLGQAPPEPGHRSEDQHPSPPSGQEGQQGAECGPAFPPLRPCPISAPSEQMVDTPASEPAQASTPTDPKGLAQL
Protocol: For the evaluation of P2XR activities, a cell-based assay system was employed to measure the level of fluorescence emission, based on Fluo-4 dye, during Ca^2+ influx evoked by αβmeATP in HEK293 cells stably expressing hP2X2/3R and hP2X3R. The library containing 8364 representative compounds for the screening of antagonistic activity was provided by the Korea Chemical Bank. The antagonistic activities were evaluated in the presence of P2X3R agonist of the concentration for EC70 value (200–250 nM for hP2X3R and 1–4 μM for hP2X2/3R highly expressed cell lines), and AF353 was used as the positive control antagonist for comparison. […]
3.4. Cell-Based Assay: Measurement of Calcium Influx by Fluorescence-Based Fluo-4 Dye Uptake in HEK293 Cells Expressing hP2X2/3 and hP2X3 Receptors
Human P2X3-expressing HEK293 cells were grown in DMEM supplemented with 10% fetal bovine serum and 1% antibiotic–antimycotic as a monolayer culture at 37 °C in a humidified atmosphere of 5% CO2. […] Flexstation 3 and its software provided by Molecular Devices was used for the measurement of fluorescence in real time of treatments using prepared α,β-meATP (M6517, Sigma Aldrich) solution to evoke calcium influx and increased cell membrane potential. […]

[1] = Metabolic stability in microsomal fraction, human; assay type: in vitro ADME; conditions: human microsomal fraction, read-out: Metabolic Stability (Microsomal Fr.) % remaining after 30 min
CYP 1A2 = target: T2, CYP 1A2 (Homo sapiens, UniProt P05177); experiment: CYP450 inhibition 1A2; assay type: in vitro ADME; conditions: compound 10 μM
T2 sequence (P05177 1-516): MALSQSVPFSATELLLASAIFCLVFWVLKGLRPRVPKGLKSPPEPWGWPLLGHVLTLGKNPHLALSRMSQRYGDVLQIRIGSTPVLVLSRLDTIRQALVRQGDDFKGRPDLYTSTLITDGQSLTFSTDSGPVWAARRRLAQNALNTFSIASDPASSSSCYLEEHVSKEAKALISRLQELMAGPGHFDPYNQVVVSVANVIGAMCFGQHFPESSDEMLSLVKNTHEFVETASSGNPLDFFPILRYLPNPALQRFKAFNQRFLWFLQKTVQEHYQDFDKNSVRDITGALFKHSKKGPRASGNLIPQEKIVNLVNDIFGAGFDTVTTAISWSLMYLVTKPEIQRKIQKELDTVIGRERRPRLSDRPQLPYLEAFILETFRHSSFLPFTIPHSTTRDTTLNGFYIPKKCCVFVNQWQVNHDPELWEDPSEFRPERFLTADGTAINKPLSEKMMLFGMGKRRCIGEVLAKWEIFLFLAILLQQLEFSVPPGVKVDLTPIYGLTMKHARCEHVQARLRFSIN

CYP 2D6 = CYP 2D6 (Homo sapiens, UniProt P10635); experiment: CYP450 inhibition 2D6; assay type: in vitro ADME; conditions: compound 10 μM
Chain of CYP 2D6 (P10635 whole entry): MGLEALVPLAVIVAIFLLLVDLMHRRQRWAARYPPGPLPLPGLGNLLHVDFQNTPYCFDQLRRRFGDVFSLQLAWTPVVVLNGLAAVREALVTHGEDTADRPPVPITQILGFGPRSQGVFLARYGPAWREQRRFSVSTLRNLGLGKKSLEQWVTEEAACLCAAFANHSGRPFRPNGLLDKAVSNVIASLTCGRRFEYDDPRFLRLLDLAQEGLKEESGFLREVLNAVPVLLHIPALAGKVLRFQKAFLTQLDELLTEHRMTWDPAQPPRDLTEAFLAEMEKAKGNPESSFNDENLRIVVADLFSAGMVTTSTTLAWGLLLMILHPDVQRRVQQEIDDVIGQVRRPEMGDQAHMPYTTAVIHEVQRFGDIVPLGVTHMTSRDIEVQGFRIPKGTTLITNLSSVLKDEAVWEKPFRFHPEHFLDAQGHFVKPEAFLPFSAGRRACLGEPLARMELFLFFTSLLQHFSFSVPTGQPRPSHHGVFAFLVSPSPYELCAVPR

- IC50 (hP2X2/3R): 9.1 µM
- remaining at 0.5 h [1]: > 99%
- CYP450 inhibition 1A2 (CYP 1A2): 6.78%
- CYP450 inhibition 2D6 (CYP 2D6): 7.74%
SMILES: O=C1C(NC2CCN(C(=O)c3ccc(F)c(F)c3)CC2)=C(Cl)C(=O)c2[nH]c(C(F)(F)F)nc21 [14h, 6-Chloro-5-((1-(3,4-difluorobenzoyl)piperidin-4-yl)amino)-2-(trifluoromethyl)-1H-benzo[d]imidazole-4,7-dione]
